ChEMBL document CHEMBL4765272, “Design, synthesis and biological evaluation of tyrosine derivatives as Mcl-1 inhibitors” (Eur J Med Chem, 2020)
pIC50, pKi: −log10 of the molar value.

Key:
[1] = Inhibition of 5-FAM-BH3 peptide binding to N-terminal His8-tagged human MCL-1 (209 to 327 residues)/mouse MCL-1 (152 to 189 residues) expressed in Escherichia coli BL21 (DE3) by fluorescence polarization assay
[2] = target: Bcl-2-like protein 1 (Homo sapiens) (UniProt Q07817); experiment: Inhibition of 5-FAM-BH3 peptide binding to human N-terminal GST-tagged BCL-XL (1 to 212 residues) expressed in Escherichia coli BL21 (DE3) at 100 uM by fluorescence polarization assay relative to control
HepG2 [3] = experiment: Antiproliferative activity against human HepG2 cells incubated for 72 hrs by MTT assay; type: functional, cell-based; conditions: HepG2, 72 h
MOLT-4 = experiment: Antiproliferative activity against human MOLT-4 cells incubated for 72 hrs by MTT assay; type: functional, cell-based; conditions: MOLT-4, 72 h
[4] = Antiproliferative activity against human KM3 cells incubated for 72 hrs by MTT assay; type: functional, cell-based; conditions: KM3, 72 h
RPMI-8226 = experiment: Antiproliferative activity against human RPMI-8226 cells incubated for 72 hrs by MTT assay; type: functional, cell-based; conditions: RPMI-8226, 72 h
Jurkat = experiment: Antiproliferative activity against human Jurkat cells incubated for 72 hrs by MTT assay; type: functional, cell-based
[5] = Inhibition of 5-FAM-BH3 peptide binding to human N-terminal GST-tagged BCL-2 (1 to 34 residues)/BCL-XL (29 to 44 residues)/BCL-2 isoform 2 (92 to 207 residues) expressed in Escherichia coli BL21 (DE3) by fluorescence polarization assay
NCI-H1299 = experiment: Antiproliferative activity against human NCI-H1299 cells incubated for 72 hrs by MTT assay; type: functional, cell-based; conditions: NCI-H1299, 72 h
PC-3 = experiment: Antiproliferative activity against human PC-3 cells incubated for 72 hrs by MTT assay; type: functional, cell-based; conditions: PC-3, 72 h
Homo sapiens = species: Homo sapiens; experiment: Inhibition of 5-FAM-BH3 peptide binding to human N-terminal GST-tagged BCL-2 (1 to 34 residues)/BCL-XL (29 to 44 residues)/BCL-2 isoform 2 (92 to 207 residues) expressed in Escherichia coli BL21 (DE3) at 100 uM by fluorescence polarization assay relative to control
HepG2 [6] = experiment: Induction of apoptosis in human HepG2 cells assessed as early apoptotic cells at 20 uM measured after 48 hrs by Annexin V-FITC/propidium iodide staining based flow cytometry (reference value: 0.71%); type: functional
HepG2 [7] = experiment: Induction of apoptosis in human HepG2 cells assessed as viable cells at 10 uM measured after 48 hrs by Annexin V-FITC/propidium iodide staining based flow cytometry (reference value: 96.84%); type: functional; conditions: read-out: Activity
HepG2 [8] = experiment: Induction of apoptosis in human HepG2 cells assessed as late apoptotic cells at 20 uM measured after 48 hrs by Annexin V-FITC/propidium iodide staining based flow cytometry (reference value: 1.93%); type: functional
HepG2 [9] = experiment: Induction of apoptosis in human HepG2 cells assessed as late apoptotic cells at 10 uM measured after 48 hrs by Annexin V-FITC/propidium iodide staining based flow cytometry (reference value: 1.93%); type: functional
[10] = Induction of apoptosis in human KM3 cells assessed as late apoptotic cells at 10 uM measured after 48 hrs by Annexin V-FITC/propidium iodide staining based flow cytometry (reference value: 1.15%); type: functional
[11] = Induction of apoptosis in human KM3 cells assessed as necrotic cells at 20 uM measured after 48 hrs by Annexin V-FITC/propidium iodide staining based flow cytometry (reference value: 0.42%); type: functional
[12] = Induction of apoptosis in human KM3 cells assessed as viable cells at 10 uM measured after 48 hrs by Annexin V-FITC/propidium iodide staining based flow cytometry (reference value: 96.24%); type: functional; conditions: read-out: Activity
HepG2 [13] = experiment: Induction of apoptosis in human HepG2 cells assessed as viable cells at 20 uM measured after 48 hrs by Annexin V-FITC/propidium iodide staining based flow cytometry (reference value: 96.84%); type: functional; conditions: read-out: Activity
[14] = Induction of apoptosis in human KM3 cells assessed as necrotic cells at 10 uM measured after 48 hrs by Annexin V-FITC/propidium iodide staining based flow cytometry (reference value: 0.42%); type: functional
[15] = Induction of apoptosis in human KM3 cells assessed as early apoptotic cells at 10 uM measured after 48 hrs by Annexin V-FITC/propidium iodide staining based flow cytometry (reference value: 2.18%); type: functional
[16] = Induction of apoptosis in human KM3 cells assessed as viable cells at 20 uM measured after 48 hrs by Annexin V-FITC/propidium iodide staining based flow cytometry (reference value: 96.24%); type: functional; conditions: read-out: Activity
[17] = Induction of apoptosis in human KM3 cells assessed as late apoptotic cells at 20 uM measured after 48 hrs by Annexin V-FITC/propidium iodide staining based flow cytometry (reference value: 1.15%); type: functional
HepG2 [18] = experiment: Induction of apoptosis in human HepG2 cells assessed as necrotic cells at 10 uM measured after 48 hrs by Annexin V-FITC/propidium iodide staining based flow cytometry (reference value: 0.52%); type: functional
HepG2 [19] = experiment: Induction of apoptosis in human HepG2 cells assessed as early apoptotic cells at 10 uM measured after 48 hrs by Annexin V-FITC/propidium iodide staining based flow cytometry (reference value: 0.71%); type: functional
HepG2 [20] = experiment: Induction of apoptosis in human HepG2 cells measured after 48 hrs by Annexin V-FITC/propidium iodide staining based flow cytometry; type: functional, cell-based
[21] = Induction of apoptosis in human KM3 cells assessed as early apoptotic cells at 20 uM measured after 48 hrs by Annexin V-FITC/propidium iodide staining based flow cytometry (reference value: 2.18%); type: functional
KM3 = experiment: Induction of apoptosis in human KM3 cells measured after 48 hrs by Annexin V-FITC/propidium iodide staining based flow cytometry; type: functional, cell-based
HepG2 [22] = experiment: Induction of apoptosis in human HepG2 cells assessed as necrotic cells at 20 uM measured after 48 hrs by Annexin V-FITC/propidium iodide staining based flow cytometry (reference value: 0.52%); type: functional

Sequence of Bcl-2-like protein 1 (Homo sapiens) (Q07817 whole entry, the tested form may be a part): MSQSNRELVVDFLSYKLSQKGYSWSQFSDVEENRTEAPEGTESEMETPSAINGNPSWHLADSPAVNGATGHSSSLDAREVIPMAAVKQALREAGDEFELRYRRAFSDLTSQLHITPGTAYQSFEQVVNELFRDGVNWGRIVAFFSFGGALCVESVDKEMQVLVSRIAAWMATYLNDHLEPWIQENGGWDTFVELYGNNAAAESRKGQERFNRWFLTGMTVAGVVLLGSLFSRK

CC(C)(C)OC(=O)N[C@@H](Cc1ccc(OCCOc2cccc3ccccc23)cc1)C(=O)NS(=O)(=O)c1ccc(NCCc2ccccc2)c([N+](=O)[O-])c1
pKi [1]: 6.38

Cc1cc(OCCOc2ccc(C[C@H](NC(=O)OC(C)(C)C)C(=O)NS(=O)(=O)c3ccc(NCCOc4ccccc4)c([N+](=O)[O-])c3)cc2)cc(C)c1Cl
pKi [1]: 6.17

Cc1ccc(CC(=O)N[C@@H](Cc2ccc(OCCOc3cc(C)c(Cl)c(C)c3)cc2)C(=O)NS(=O)(=O)c2ccc(Cl)c([N+](=O)[O-])c2)cc1
pKi [1]: 6.32

Cc1ccc(CC(=O)N[C@@H](Cc2ccc(OCCOc3ccc(Cl)cc3)cc2)C(=O)NS(=O)(=O)c2ccc(Cl)c([N+](=O)[O-])c2)cc1
pKi [1]: 5.80

CC(C)(C)OC(=O)N[C@@H](Cc1ccc(OCCOc2ccccc2)cc1)C(=O)NS(=O)(=O)c1ccc(Cl)c([N+](=O)[O-])c1
pKi [1]: < 4.82

Cc1ccc(CC(=O)N[C@@H](Cc2ccc(OCCOc3cc(C)c(Cl)c(C)c3)cc2)C(=O)NS(=O)(=O)c2ccc(NCCOc3ccccc3)c([N+](=O)[O-])c2)cc1
pKi [1]: 6.47

Cc1ccc(CC(=O)N[C@@H](Cc2ccc(OCCOc3cccc4ccccc34)cc2)C(=O)NS(=O)(=O)c2ccc(NCCc3ccccc3)c([N+](=O)[O-])c2)cc1
pKi [1]: 6.33

CC(C)(C)OC(=O)N[C@@H](Cc1cc(Cl)c(OCCOc2cccc3ccccc23)c(Cl)c1)C(=O)NS(=O)(=O)c1ccc(Cl)c([N+](=O)[O-])c1
pKi [1]: 6.00

Cc1ccc(CC(=O)N[C@@H](Cc2cc(I)c(OCCOc3cccc4ccccc34)c(I)c2)C(=O)NS(=O)(=O)c2ccc(Cl)c([N+](=O)[O-])c2)cc1
pKi [1]: 6.24

Cc1cc(OCCCOc2ccc(C[C@H](NC(=O)OC(C)(C)C)C(=O)NS(=O)(=O)c3ccc(Cl)c([N+](=O)[O-])c3)cc2)cc(C)c1Cl
pKi [1]: 6.18

Cc1ccc(CC(=O)N[C@@H](Cc2ccc(OCCOc3cccc4ccccc34)cc2)C(=O)NS(=O)(=O)c2ccc(Cl)c([N+](=O)[O-])c2)cc1
pKi [1]: 6.23

Cc1cc(OCCCCOc2ccc(C[C@H](NC(=O)OC(C)(C)C)C(=O)NS(=O)(=O)c3ccc(Cl)c([N+](=O)[O-])c3)cc2)cc(C)c1Cl
pKi [1]: 6.15

Cc1ccc(C(=O)N[C@@H](Cc2ccc(OCCOc3cccc4ccccc34)cc2)C(=O)NS(=O)(=O)c2ccc(Cl)c([N+](=O)[O-])c2)cc1
pKi [1]: 6.15

Cc1cc(OCCOc2ccc(C[C@H](NC(=O)OC(C)(C)C)C(=O)NS(=O)(=O)c3ccc(Cl)c([N+](=O)[O-])c3)cc2)cc(C)c1Cl
pKi [1]: 6.15

CC(C)(C)OC(=O)N[C@@H](Cc1ccc(OCCOc2cccc3ccccc23)cc1)C(=O)NS(=O)(=O)c1ccc(Cl)c([N+](=O)[O-])c1
pKi [1]: 5.30

Cc1ccc(CC(=O)N[C@@H](Cc2ccc(OCCOc3cccc4ccccc34)cc2)C(=O)NS(=O)(=O)c2ccc(NCCCc3ccccc3)c([N+](=O)[O-])c2)cc1
pKi [1]: 6.36

Cc1cc(OCCCCOc2ccc(C[C@H](NC(=O)OC(C)(C)C)C(=O)NS(=O)(=O)c3ccc(NCCCc4ccccc4)c([N+](=O)[O-])c3)cc2)cc(C)c1Cl
inhibition [2]: > 50%
pIC50 (HepG2 [3]): 4.96
pIC50 (MOLT-4): 4.71
pKi [1]: 6.59
pIC50 [4]: 5.01
pIC50 (RPMI-8226): 5.06
pIC50 (Jurkat): 4.67
pKi [5]: 5.92
pIC50 (NCI-H1299): 4.64
pIC50 (PC-3): 5.01

Cc1ccc(CC(=O)N[C@@H](Cc2cc(I)c(OCCOc3cccc4ccccc34)c(I)c2)C(=O)NS(=O)(=O)c2ccc(NCCCc3ccccc3)c([N+](=O)[O-])c2)cc1
inhibition [2]: > 50%
pIC50 (HepG2 [3]): 4.90
pIC50 (MOLT-4): 4.74
pKi [1]: 6.68
pIC50 [4]: 5.08
inhibition (Homo sapiens): > 50%
pIC50 (RPMI-8226): 5.13
pIC50 (Jurkat): 4.76
pIC50 (NCI-H1299): 4.67
pIC50 (PC-3): 4.74

Cc1ccc(CC(=O)N[C@@H](Cc2cc(Br)c(OCCOc3cccc4ccccc34)c(Br)c2)C(=O)NS(=O)(=O)c2ccc(Cl)c([N+](=O)[O-])c2)cc1
pKi [1]: 6.01

Cc1ccc(CC(=O)N[C@@H](Cc2ccc(OCCOc3cccc4ccccc34)cc2)C(=O)NS(=O)(=O)c2ccc(NCc3ccccc3)c([N+](=O)[O-])c2)cc1
pKi [1]: 6.12

Cc1ccc(CC(=O)N[C@@H](Cc2cc(Cl)c(OCCOc3cccc4ccccc34)c(Cl)c2)C(=O)NS(=O)(=O)c2ccc(Cl)c([N+](=O)[O-])c2)cc1
pKi [1]: 6.14

Cc1cc(OCCOc2ccc(C[C@H](NC(=O)OC(C)(C)C)C(=O)NS(=O)(=O)c3ccc(NCCCc4ccccc4)c([N+](=O)[O-])c3)cc2)cc(C)c1Cl
pKi [1]: 6.35

CC(C)(C)OC(=O)N[C@@H](Cc1ccc(OCCOc2cccc3ccccc23)cc1)C(=O)NS(=O)(=O)c1ccc(NCCCc2ccccc2)c([N+](=O)[O-])c1
pKi [1]: 5.96

CC(C)(C)OC(=O)N[C@@H](Cc1ccc(OCCOc2ccc(Cl)cc2)cc1)C(=O)NS(=O)(=O)c1ccc(Cl)c([N+](=O)[O-])c1
pKi [1]: 5.32

Cc1cc(OCCOc2ccc(C[C@H](NC(=O)c3ccccc3)C(=O)NS(=O)(=O)c3ccc(NCCCc4ccccc4)c([N+](=O)[O-])c3)cc2)cc(C)c1Cl
Activity (HepG2 [6]): 2.25%
viability at 10 µM (HepG2 [7]): 82.3%
inhibition [2]: > 50%
Activity (HepG2 [8]): 75.13%
pIC50 (HepG2 [3]): 4.93
Activity (HepG2 [9]): 11.72%
Activity [10]: 5.52%
Activity [11]: 1.73%
pIC50 (MOLT-4): 4.86
viability at 10 µM [12]: 83%
pKi [1]: 6.57
viability at 20 µM (HepG2 [13]): 18.5%
Activity [14]: 1.01%
Activity [15]: 10.52%
pIC50 [4]: 5.13
viability at 20 µM [16]: 11.9%
Activity [17]: 68.68%
Activity (HepG2 [18]): 5.13%
pIC50 (RPMI-8226): 5.12
pIC50 (Jurkat): 4.88
Activity (HepG2 [19]): 0.87%
Activity (HepG2 [20]): Dose-dependent effect
pKi [5]: 5.77
pIC50 (NCI-H1299): 4.89
pIC50 (PC-3): 4.84
Activity [21]: 17.71%
Activity (KM3): Dose-dependent effect
Activity (HepG2 [22]): 4.13%

Cc1ccc(CC(=O)N[C@@H](Cc2ccc(OCCOc3ccccc3)cc2)C(=O)NS(=O)(=O)c2ccc(Cl)c([N+](=O)[O-])c2)cc1
pKi [1]: 5.07

O=C(Cc1ccc(Cl)cc1)N[C@@H](Cc1ccc(OCCOc2cccc3ccccc23)cc1)C(=O)NS(=O)(=O)c1ccc(Cl)c([N+](=O)[O-])c1
pKi [1]: 6.29

CC(C)(C)OC(=O)N[C@@H](Cc1cc(I)c(OCCOc2cccc3ccccc23)c(I)c1)C(=O)NS(=O)(=O)c1ccc(Cl)c([N+](=O)[O-])c1
pKi [1]: 5.85

COc1ccc(CC(=O)N[C@@H](Cc2ccc(OCCOc3cccc4ccccc34)cc2)C(=O)NS(=O)(=O)c2ccc(NCCCc3ccccc3)c([N+](=O)[O-])c2)cc1
pKi [1]: 6.30
